Data on 2 compounds can be found in patent publication US20050187188A1, “Methods for the treatment of a traumatic central nervous system injury” (Emory University, priority 2000, published 2005).

Entries after “also recorded” stand apart in the source; their conditions may differ.

The test system of assay [1] is rats with medial frontal cortical contusions. Briefly: Cerebral edema (brain tissue water content) after medial frontal cortex contusion, Example 1. The assay is classed as in vivo, rat. Conditions: 4 mg/kg in cyclodextrin, i.p. 1 h and s.c. 6 h post-injury; 2, 24 and 72 hours; compared to vehicle.
Method: Contusions to the medical frontal cortex (MFC) using a pneumatic impactor device were generated. Animals were anesthetized by injection of Nembutal (50 mg/kg, i.p) and placed in a stereotaxic apparatus, with body core temperature being maintained with a homeothermic heating blanket system. Using aseptic techniques, a midline incision was made in the scalp, and the fascia retracted to expose the cranium. A centered, bilateral craniotomy was made 3 mm anterior to bregma using a 6 mm diameter trephan. After the removal of the bone, the tip of the impactor was moved to AP:3.0; ML:0.0, checked for adequate clearance, retracted to its elevated position and lowered 3.5 mm DV, so it penetrated the cortex 2 mm. The contusion was made at a velocity of 2.25 m/s with a brain contact time of 0.5 seconds. Following this procedure, the wound cavity was thoroughly cleaned and all bleeding stopped before the fascia and scalp, were sutured closed. In all experiments, the rats' group identity was coded with regard to surgery and treatment to prevent experimenter bias during behavioral testing and later histological examination.
These experimental solutions were then diluted 1:1 with sterile water for a final concentration of HBC of 22.5%.
Sprague-Dawley male rats, approximately 90 days of age at the time of surgery, were used. Rats were housed in individual cages, with a 12:12 light:dark cycle. Food and water were provided ad libitum throughout the experiment. Control rats received sham surgeries and the rest received medial frontal cortical contusions as described in the general methods. The sham-operated controls were given vehicle (cyclodextrin). […] Treatment began one hour after the contusion was produced. […] Subsequently, a second subcutaneous injection 6 hours post-injury for absorption that is more gradual. […]
At 2, 24, and 72 hours the rats were anesthetized, decapitated, and their brains removed quickly from the cranial cavity. […] The brain was placed on a pre-weighed dish and the total weight of the sample was measured. […]
Assay [2] relates to rats with bilateral frontal cortical contusions. In words: Morris water maze after MFC contusion, Example 2. As to conditions: 4 mg/kg. The assay is classed as in vivo, rat. As for the experimental part:
Contusions to the MFC were carried out as described in Example 1.
(§1) These injections started at one hour post-injury with an intraperitoneal injection, and then were repeated at 6, 24, 48, 72, 96, and 120 hours post-injury with subcutaneous injections.
The Morris Water Maize (MWM) consisted of a circular tank with a diameter of 133 cm filled with opaque water (20±1° C.; non-toxic Artista™ nontoxic white tempura paint) to a depth of 64 cm (23 cm from top of tank). A platform (11 cm×11 cm) was submerged to a depth of 2 cm and placed approximately 28 cm from the wall of the pool in the center of the northeast quadrant. The position of the platform will remain constant throughout the experiment. MWM testing began seven days after surgery. Each animal was tested for a total of 10 days (2 trials per day) in two 5-day blocks. At the start of each trial, the experimenter placed a rat into the pool at one of four starting positions, and at the same time, activate the computer-interfaced camera tracking system. Each rat was allowed to swim in the pool until it reached the platform or until 90 seconds has passed. […] The performance of each rat was measured in terms of latency to platform, length of path to platform, and swim strategy, i.e., percent of total time spent in the outer versus inner annuli.

Assay [3] shares this test system. Briefly: Histological count of ChAT positive cells in nucleus basalis magnocellularis, motor behavior and cavity size, Example 2. The assay is classed as in vivo, rat. As to conditions: 4 mg/kg. As for the experimental part:
A single asterisk (*) indicates a significant difference from sham, a double asterisk (**) indicates a significant difference from both sham and lesion controls.
as §1
To determine the relationship between neural cell numbers and behavior, the number of neurons and glia were counted to determine the correlative relationship between the survival of these cells and behavioral performance (FIG. 3).

The subject of another assay is GABA receptor. As to conditions: independent of the benzodiazepines; cited from earlier work.
For a further assay, the system named is sigma receptor. Conditions: cited from earlier work.
In another assay the test system is cell death. As to conditions: by attenuating release of inflammatory cytokines; cited from earlier work.

As for `CC(=O)[C@H]1CC[C@H]2[C@@H]3CC[C@H]4C[C@H](O)CC[C@]4(C)[C@H]3CC[C@]12C` [allopregnanolone, allopregnan-3α, or 3β-ol-20-one], the cerebral edema entry in assay [1] is “significantly reduced cerebral edema”. For the same compound, the “Morris water maze performance vs injured rats given vehicle” value in assay [2] (injections from 1 h to 120 h post-injury, last three blocks of testing, p<0.05) is given as “improved performance on an acquisition task; also recorded: significantly outperformed the injured rats given vehicle”. Besides, the “performance scores on the spatial learning task vs other groups” value in assay [2] (all days of testing) is listed as “better performance scores on the spatial learning task than the other groups”. In assay [3], the necrotic cavity size result was “no differences” and the spontaneous motor behavior entry is “no differences”. Further, the “number of ChAT positive cells in the nucleus basalis magnocellularis” value in assay [3] (vs untreated controls) is “more remaining viable neurons in this structure than untreated controls”. In addition, the “modulation of the GABA receptor” value with GABA receptor is given as “positive modulators of the GABA receptor”. For the same compound, the “activity at the sigma receptor” value in the assay with sigma receptor is recorded as “antagonists at the sigma receptor”. In addition, the “cell death in vitro” value with cell death is “prevent cell death in vitro”.
On to `CC(=O)[C@H]1CC[C@H]2[C@@H]3CC[C@@H]4C[C@@H](O)CC[C@]4(C)[C@H]3CC[C@]12C` [epipregnanolone], for which the cerebral edema result in assay [1] is “intermediate between injured controls and the allopregnanolone-treated injured rats”. Also, the “modulation of the GABA receptor” value in the assay with GABA receptor is “positive modulators of the GABA receptor”. Besides, the “activity at the sigma receptor” value in the assay with sigma receptor is on record as “antagonists at the sigma receptor”.
